From the NIST ThermoML archive (doi:10.1016/j.tca.2013.08.031)

Assay: molar heat capacity at constant volume
Conditions: Fluid (supercritical or subcritical phases), Vacuum adiabatic calorimetry

CCC(C)O (stereo not given) [butan-2-ol]
Conditions	molar heat capacity at constant volume [J/K/mol]
462.76 K, Mass density=598.18 kg/m3	276.1
462.95 K, Mass density=598.18 kg/m3	279.07
463.15 K, Mass density=598.18 kg/m3	277.81
463.35 K, Mass density=598.18 kg/m3	282.48
463.45 K, Mass density=598.18 kg/m3	292.34
463.74 K, Mass density=598.18 kg/m3	258.76
463.93 K, Mass density=598.18 kg/m3	219.18
464.13 K, Mass density=598.18 kg/m3	217.62
464.33 K, Mass density=598.18 kg/m3	217.32
464.53 K, Mass density=598.18 kg/m3	218.88
464.72 K, Mass density=598.18 kg/m3	216.73
464.92 K, Mass density=598.18 kg/m3	217.62
465.11 K, Mass density=598.18 kg/m3	217.55
465.31 K, Mass density=598.18 kg/m3	218.07
467.66 K, Mass density=598.18 kg/m3	219.18
467.86 K, Mass density=598.18 kg/m3	218.88
468.05 K, Mass density=598.18 kg/m3	218.44
468.25 K, Mass density=598.18 kg/m3	219.84
468.45 K, Mass density=598.18 kg/m3	219.92
469.23 K, Mass density=598.18 kg/m3	222.44
469.42 K, Mass density=598.18 kg/m3	222.36
481.46 K, Mass density=538.17 kg/m3	279.66
481.66 K, Mass density=538.17 kg/m3	284.78
481.85 K, Mass density=538.17 kg/m3	283.59
482.04 K, Mass density=538.17 kg/m3	284.55
482.24 K, Mass density=538.17 kg/m3	286.41
482.43 K, Mass density=538.17 kg/m3	287.44
482.62 K, Mass density=538.17 kg/m3	289.22
482.81 K, Mass density=538.17 kg/m3	288.41
483.01 K, Mass density=538.17 kg/m3	289
483.2 K, Mass density=538.17 kg/m3	291.15
483.39 K, Mass density=538.17 kg/m3	289.82
483.58 K, Mass density=538.17 kg/m3	289.59
483.78 K, Mass density=538.17 kg/m3	289.59
487.62 K, Mass density=538.17 kg/m3	282.7
487.81 K, Mass density=538.17 kg/m3	280.25
488 K, Mass density=538.17 kg/m3	282.4
488.19 K, Mass density=538.17 kg/m3	287.74
488.39 K, Mass density=538.17 kg/m3	290.63
489.53 K, Mass density=538.17 kg/m3	283.44
489.73 K, Mass density=538.17 kg/m3	289.07
489.92 K, Mass density=538.17 kg/m3	294.19
490.11 K, Mass density=538.17 kg/m3	289.3
490.87 K, Mass density=538.17 kg/m3	282.03
491.06 K, Mass density=538.17 kg/m3	283.07
491.45 K, Mass density=538.17 kg/m3	285.52
491.64 K, Mass density=538.17 kg/m3	290.85
491.83 K, Mass density=538.17 kg/m3	286.92
492.02 K, Mass density=538.17 kg/m3	283.07
492.21 K, Mass density=538.17 kg/m3	281.44
492.4 K, Mass density=538.17 kg/m3	282.18
492.59 K, Mass density=538.17 kg/m3	258.31
492.78 K, Mass density=538.17 kg/m3	240.45
492.97 K, Mass density=538.17 kg/m3	211.02
493.16 K, Mass density=538.17 kg/m3	211.77
493.36 K, Mass density=538.17 kg/m3	215.03
493.55 K, Mass density=474.07 kg/m3	293.52
493.55 K, Mass density=538.17 kg/m3	215.03
493.74 K, Mass density=474.07 kg/m3	285.37
493.93 K, Mass density=474.07 kg/m3	291.3
494.12 K, Mass density=474.07 kg/m3	294.26
494.31 K, Mass density=474.07 kg/m3	297.97
494.5 K, Mass density=474.07 kg/m3	291.3
494.69 K, Mass density=474.07 kg/m3	288.33
494.88 K, Mass density=474.07 kg/m3	272.77
495.07 K, Mass density=474.07 kg/m3	277.21
495.26 K, Mass density=474.07 kg/m3	272.77
495.45 K, Mass density=474.07 kg/m3	279.44
501.71 K, Mass density=76.44 kg/m3	522.04
501.9 K, Mass density=76.44 kg/m3	509.29
502.09 K, Mass density=76.44 kg/m3	497.21
502.28 K, Mass density=76.44 kg/m3	502.03
502.46 K, Mass density=76.44 kg/m3	499.06
502.65 K, Mass density=76.44 kg/m3	495.28
502.84 K, Mass density=76.44 kg/m3	491.43
503.03 K, Mass density=76.44 kg/m3	490.83
503.22 K, Mass density=76.44 kg/m3	487.05
503.41 K, Mass density=76.44 kg/m3	488.98
503.6 K, Mass density=76.44 kg/m3	491.8
503.97 K, Mass density=76.44 kg/m3	497.73
504.16 K, Mass density=76.44 kg/m3	500.54
504.35 K, Mass density=76.44 kg/m3	512.25
504.54 K, Mass density=76.44 kg/m3	524.04
504.73 K, Mass density=76.44 kg/m3	551.69
504.92 K, Mass density=76.44 kg/m3	530.27
505.11 K, Mass density=76.44 kg/m3	521.82
505.29 K, Mass density=76.44 kg/m3	499.58
505.48 K, Mass density=76.44 kg/m3	412.34
505.67 K, Mass density=76.44 kg/m3	315.91
505.86 K, Mass density=76.44 kg/m3	251.94
506.05 K, Mass density=76.44 kg/m3	248.83
510.37 K, Mass density=474.07 kg/m3	291.3
510.55 K, Mass density=474.07 kg/m3	290.56
510.74 K, Mass density=474.07 kg/m3	293.52
510.93 K, Mass density=474.07 kg/m3	293.52
511.49 K, Mass density=474.07 kg/m3	292.04
511.68 K, Mass density=474.07 kg/m3	295
511.87 K, Mass density=474.07 kg/m3	292.78
512.43 K, Mass density=474.07 kg/m3	296.49
512.61 K, Mass density=474.07 kg/m3	295.75
512.8 K, Mass density=474.07 kg/m3	295.75
513.18 K, Mass density=95.93 kg/m3	639
513.36 K, Mass density=95.93 kg/m3	647.6
513.36 K, Mass density=474.07 kg/m3	281.66
513.55 K, Mass density=95.93 kg/m3	645.08
